Measurements from patent US5985630A, “Assay for detecting inhibitors of aminoacyl-tRNA synthetases” (Zeneca Limited, priority 1993, dated 1999).

Experiments:
[1] = biological target: T1, E. coli ITRS (isoleucyl-tRNA synthetase) (Escherichia coli, UniProt P00956); assay: Colorimetric assay based on valine as substrate (valine-based assay of the invention); format: biochemical; settings: 15 mM valine, 0.75 mM ATP, 37° C., read-out: Concentration giving 50% inhibition (I50)
T1 construct: endogenous in cells; enzyme partially purified in house
Description: 2. Measurement of ITRS activity using a Colorimetric Assay based on using Valine as Substrate
Incubations were set up in quadruplicate (as above) with a final volume of 200 μl as described below. Stock reagents used in the method were as follows:
(§1) Prepared as described above. The specific activity of the enzyme used in the present example was approximately 145 nM of product formed/minute/mg, and was about 5%-10% active. The enzyme was diluted as appropriate. It will be appreciated that the enzyme amounts in the assay can be adjusted according to the purity of the enzyme used.
(§2) The assay mixture for a final volume of 200 μl was composed of:
The standard assay (in 200 μl) was carried out in quadruplicate in Eppendorf microcentrifuge tubes. The ingredients were pre-incubated for 2-3 minutes at 37° C. and the reaction started by addition of 20 μl of appropriately diluted enzyme extract (as described above).
Thus the final reaction contained reagents in the following concentrations:
0.12 mg of mixed tRNA species from E. coli (as described above) HPLC purified from […] available from by Sigma (UK) Ltd 1 unit/μl of inorganic pyrophosphatase and
an appropriate concentration of ITRS (for example […] of the enzyme as described above).
The samples were incubated at 37° C. for 20-60 minutes. […] The optical absorbance is then measured at a wavelength of 630 nm using a spectrophotometer.

[2] = biological target: T1, E. coli ITRS (isoleucyl-tRNA synthetase); assay: 3H-isoleucine-based radiolabelled (standard radiometric) assay; format: biochemical; settings: for IC50: standard 3H-isoleucine radiometric assay, 10 μM isoleucine, 1 mM ATP, 37° C., read-out: Concentration giving 50% inhibition (I50); for Mode of inhibition: with respect to the amino acid substrate, Compound 1 at 0, 0.25 μM and 1.0 μM with varying 3H-isoleucine up to 100 μM
Description: 2. Measurement of ITRS Activity using a ^3 H-Isoleucine-Based Radiolabelled Assay
The activity of ITRS during fractionation was monitored using conditions based on the method described by Steinmetz and Weil (7), and as described below. Stock reagents used in the method are as follows:
as §1, §2
The standard assay (in 200 μl) was carried out in quadruplicate in Eppendorf microcentrifuge tubes. The ingredients were preincubated for 2-3 minutes at 37° C., and the reaction started by addition of approximately 20 μl of the appropriately diluted enzyme extract as described above.
The final reaction contained reagents in the following concentrations:
0.1% bovine serum albumin
10 μM Isoleucine containing ^3 H-Ile
The assay was incubated at 37° C. for 20 minutes, and stopped by addition of 50 μl 20% TCA, and the tubes placed on ice.
200 μl of the reaction mixture was pipetted onto 1.5 cm^2 cellulose 3MM filters. The filters were washed (in groups of 4) as follows: 1×10% TCA, 2×5% TCA, and 2×ethanol using fresh wash medium for each set of replicates to avoid cross contamination. The dried filters were placed in 20 ml scintillation vials and the radioactivity counted in 15 ml Optiphase.
The inhibition constants of two compounds were measured and the results compared with the values obtained using the standard ^3 H-isoleucine assay.

T1 sequence (P00956 whole entry): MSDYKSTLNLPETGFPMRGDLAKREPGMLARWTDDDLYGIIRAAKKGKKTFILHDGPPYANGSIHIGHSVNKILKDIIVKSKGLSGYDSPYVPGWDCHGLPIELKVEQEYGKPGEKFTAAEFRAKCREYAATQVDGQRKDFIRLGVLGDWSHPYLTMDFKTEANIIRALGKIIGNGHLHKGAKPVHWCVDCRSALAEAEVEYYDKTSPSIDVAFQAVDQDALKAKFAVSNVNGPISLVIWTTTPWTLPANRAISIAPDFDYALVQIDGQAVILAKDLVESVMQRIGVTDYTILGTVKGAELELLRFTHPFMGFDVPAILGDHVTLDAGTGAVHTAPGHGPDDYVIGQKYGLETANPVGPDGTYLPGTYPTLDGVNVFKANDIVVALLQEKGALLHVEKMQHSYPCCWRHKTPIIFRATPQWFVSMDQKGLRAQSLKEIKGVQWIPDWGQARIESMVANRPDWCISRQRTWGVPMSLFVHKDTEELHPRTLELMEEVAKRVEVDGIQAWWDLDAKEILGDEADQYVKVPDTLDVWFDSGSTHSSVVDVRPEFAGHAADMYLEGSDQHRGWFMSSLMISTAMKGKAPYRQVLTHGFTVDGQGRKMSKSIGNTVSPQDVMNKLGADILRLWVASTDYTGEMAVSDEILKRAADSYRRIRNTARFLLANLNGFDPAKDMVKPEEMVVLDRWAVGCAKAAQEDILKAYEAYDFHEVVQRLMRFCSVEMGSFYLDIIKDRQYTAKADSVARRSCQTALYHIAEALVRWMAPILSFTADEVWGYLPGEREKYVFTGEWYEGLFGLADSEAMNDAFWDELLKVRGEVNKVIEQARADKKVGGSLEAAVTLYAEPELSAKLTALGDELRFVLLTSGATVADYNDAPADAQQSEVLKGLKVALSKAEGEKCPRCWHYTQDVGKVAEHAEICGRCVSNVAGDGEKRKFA

Row | SMILES | IC50 [1] [µM] | IC50 [2] [µM] | Mode of inhibition [2] | Mode of inhibition ([2]; listed as compound 1)
1 | CC(=O)C(C)C1OC1CC1COC(CC(C)=CC(=O)O)C(O)C1O (stereo not shown) [Compound 1] | 2 | 0.109 | competitive with respect to isoleucine | competitive with the amino acid
2 | C=COCCOC(=O)C=C(C)CC1OCC(CC2OC2C(C)C(C)O)C(O)C1O (stereo not shown) [Compound 2] | 0.038 | 0.0023 | competitive with the amino acid | 
